# Data from patent publication US11339120B2, “Phenyl derivatives as cannabinoid receptor 2 agonists” (priority 2015, dated 2022).
# Where two headings read alike, the source gives them in different places.
# How the values were obtained:
# human CB2 receptors = target: T1, human CB2 receptors (Homo sapiens, UniProt P34972); assay: functional cAMP assay, CHO cells expressing human CB2; assay type: cell-based
# T1 construct: expressed in transfected cells; host or cells: CHO cells
# Procedure: (§1) CHO cells expressing human CB1 or CB2 receptors are seeded 17-24 hours prior to the experiment 50.000 cells per well in a black 96 well plate with flat clear bottom (Corning Costar #3904) in DMEM (Invitrogen No. 31331), 1×HT supplement, with 10% fetal calf serum and incubated at 5% CO2 and 37° C. in a humidified incubator. The growth medium was exchanged with Krebs Ringer Bicarbonate buffer with 1 mM IBMX and incubated at 30° C. for 30 min. Compounds were added to a final assay volume of 100 μl and incubated for 30 min at 30° C. Using the cAMP-Nano-TRF detection kit the assay (Roche Diagnostics) was stopped by the addition of 50 μl lysis reagent (Tris, NaCl, 1.5% Triton X100, 2.5% NP40, 10% NaN3) and 50 μl detection solutions (20 μM mAb Alexa700-cAMP 1:1, and 48 μM Ruthenium-2-AHA-cAMP) and shaken for 2 h at room temperature. The time-resolved energy transfer is measured by a TRF reader (Evotec Technologies GmbH), equipped with a ND:YAG laser as excitation source. The plate is measured twice with the excitation at 355 nm and at the emission with a delay of 100 ns and a gate of 100 ns, total exposure time 10 s at 730 (bandwidth 30 nm) or 645 nm (bandwidth 75 nm), respectively. The FRET signal is calculated as follows: FRET=T730-Alexa730-P(T645-B645) with P=Ru730-B730/Ru645-B645, where T730 is the test well measured at 730 nM, T645 is the test well measured at 645 nm, B730 and B645 are the buffer controls at 730 nm and 645 nm, respectively. cAMP content is determined from the function of a standard curve spanning from 10 μM to 0.13 nM cAMP.
# (§2) EC50 values were determined using Activity Base analysis (ID Business Solution, Limited). The EC50 values for a wide range of cannabinoid agonists generated from this assay were in agreement with the values published in the scientific literature.
# human CB1 receptors = target: T2, human CB1 receptors (Homo sapiens, UniProt P21554); assay: functional cAMP assay, CHO cells expressing human CB1; assay type: cell-based
# T2 construct: expressed in transfected cells; host or cells: CHO cells
# T2 sequence (P21554 whole entry): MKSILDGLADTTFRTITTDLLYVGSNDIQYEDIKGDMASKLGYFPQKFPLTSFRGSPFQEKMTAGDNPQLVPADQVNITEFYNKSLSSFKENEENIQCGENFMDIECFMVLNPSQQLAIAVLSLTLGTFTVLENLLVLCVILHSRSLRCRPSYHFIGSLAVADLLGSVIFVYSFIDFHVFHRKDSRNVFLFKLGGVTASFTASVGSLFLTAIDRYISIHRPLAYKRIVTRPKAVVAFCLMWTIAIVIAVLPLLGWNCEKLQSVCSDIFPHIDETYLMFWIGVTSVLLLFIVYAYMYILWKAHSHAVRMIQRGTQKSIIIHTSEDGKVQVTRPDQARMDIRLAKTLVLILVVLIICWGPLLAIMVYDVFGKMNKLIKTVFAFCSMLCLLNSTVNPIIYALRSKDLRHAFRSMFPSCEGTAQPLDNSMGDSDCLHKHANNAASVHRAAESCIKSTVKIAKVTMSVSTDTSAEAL
# Procedure: as §1, §2
# [1] = functional cAMP assay, CHO cells expressing human CB2, read-out: Human CB2 EC50
# T1 sequence (P34972 whole entry): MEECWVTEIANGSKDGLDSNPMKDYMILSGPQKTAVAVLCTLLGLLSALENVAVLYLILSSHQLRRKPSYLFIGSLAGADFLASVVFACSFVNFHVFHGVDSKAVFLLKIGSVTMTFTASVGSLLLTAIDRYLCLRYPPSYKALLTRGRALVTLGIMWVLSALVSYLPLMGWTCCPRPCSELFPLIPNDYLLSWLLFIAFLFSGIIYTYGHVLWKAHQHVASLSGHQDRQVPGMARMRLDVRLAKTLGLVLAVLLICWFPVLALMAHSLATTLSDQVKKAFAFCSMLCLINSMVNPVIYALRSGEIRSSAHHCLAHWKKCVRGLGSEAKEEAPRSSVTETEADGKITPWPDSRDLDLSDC
Compound,EC50 (human CB2 receptors) [µM],EC50 (human CB1 receptors) [µM],EC50 (human CB2 receptors; [1]) [µM]
"Cc1nc([C@@](C)(CS(C)(=O)=O)NC(=O)c2ccc(C3CC3)c(OCC(F)(F)F)c2)no1 [Example 29, 4-Cyclopropyl-N-[(2S)-1-(methanesulfonyl)-2-(5-methyl-1,2,4-oxadiazol-3-yl)propan-2-yl]-3-(2,2,2-trifluoroethoxy)benzamide]",0.149,> 10,
"CC(C)(C)c1nc(-c2ccc(C3CC3)c(OCCF)c2)no1 [Example 30, 5-tert-Butyl-3-[4-cyclopropyl-3-(2-fluoroethoxy)phenyl]-1,2,4-oxadiazole]",0.0383,> 10,
"Cc1nc([C@@](C)(CC2CC2)NC(=O)c2ccc(C3CC3)c(OCC(F)F)c2)no1 [Example 31, (−)-4-Cyclopropyl-N-[1-cyclopropyl-2-(5-methyl-1,2,4-oxadiazol-3-yl)propan-2-yl]-3-(2,2-difluoroethoxy)benzamide]",0.0166,> 10,
"Cc1nc([C@](C)(CC2CC2)NC(=O)c2ccc(C3CC3)c(OCC(F)F)c2)no1 [Example 32, (+)-4-Cyclopropyl-N-[1-cyclopropyl-2-(5-methyl-1,2,4-oxadiazol-3-yl)propan-2-yl]-3-(2,2-difluoroethoxy)benzamide]",0.0101,> 10,
Cc1nc([C@@](C)(CC2CC2)NC(=O)c2ccc(C3CC3)c(OCCF)c2)no1 [Example 33],0.0594,> 10,
"Cc1nc([C@](C)(CC2CC2)NC(=O)c2ccc(C3CC3)c(OCCF)c2)no1 [Example 34, (+)-4-Cyclopropyl-N-[1-cyclopropyl-2-(5-methyl-1,2,4-oxadiazol-3-yl)propan-2-yl]-3-(2-fluoroethoxy)benzamide]",0.057,> 10,
"C[C@](CC(N)=O)(NC(=O)c1ccc(C2CC2)c(OCC(F)(F)F)c1)C1CC1 [Example 36, (+)-N-[4-amino-2-cyclopropyl-4-oxobutan-2-yl]-4-cyclopropyl-3-(2,2,2-trifluoroethoxy)benzamide]",0.0339,> 10,
"CNC(=O)[C@@H](NC(=O)c1ccc(C2CC2)c(OC(C)C)c1)C(C)(C)C [Example 37, 4-Cyclopropyl-N-[(2S)-3,3-dimethyl-1-(methylamino)-1-oxobutan-2-yl]-3-[(propan-2-yl)oxy]benzamide]",0.00533,> 10,
"CNC(=O)[C@@H](NC(=O)c1ccc(C2CC2)c(OCCF)c1)C(C)(C)C [Example 39, 4-Cyclopropyl-N-[(2S)-3,3-dimethyl-1-(methylamino)-1-oxobutan-2-yl]-3-(2-fluoroethoxy)benzamide]",0.0115,1.56,
"NC(=O)[C@@H]1CC(F)(F)CN1C(=O)c1ccc(C2CC2)c(OCCF)c1 [Example 40, 1-[4-Cyclopropyl-3-(2-fluoroethoxy)benzoyl]-4,4-difluoro-L-prolinamide]",,> 10,0.216
"CNC(=O)[C@@H](NC(=O)c1ccc(C2CC2)c(OCC(F)(F)F)c1)C(C)(C)C [Example 41, 4-Cyclopropyl-N-[(2S)-3,3-dimethyl-1-(methylamino)-1-oxobutan-2-yl]-3-(2,2,2-trifluoroethoxy)benzamide]",0.01,0.586,
"NC(=O)[C@@H]1CC(F)(F)CN1C(=O)c1ccc(C2CC2)c(OCC(F)(F)F)c1 [Example 42, 1-[4-Cyclopropyl-3-(2,2,2-trifluoroethoxy)benzoyl]-4,4-difluoro-L-prolinamide]",,> 10,0.134
"CC(C)Oc1cc(C(=O)N[C@@](C)(CC(N)=O)C2CC2)ccc1C1CC1 [Example 43, N-[(2S)-4-Amino-2-cyclopropyl-4-oxobutan-2-yl]-4-cyclopropyl-3-[(propan-2-yl)oxy]benzamide]",0.0308,> 10,
"CC(C)Oc1cc(C(=O)N[C@](C)(CC(N)=O)C2CC2)ccc1C1CC1 [Example 44, N-[(2R)-4-Amino-2-cyclopropyl-4-oxobutan-2-yl]-4-cyclopropyl-3-[(propan-2-yl)oxy]benzamide]",0.00291,1.09,
"C[C@](CC(N)=O)(NC(=O)c1ccc(C2CC2)c(OCCF)c1)C1CC1 [Example 45, N-[(2R)-4-Amino-2-cyclopropyl-4-oxobutan-2-yl]-4-cyclopropyl-3-(2-fluoroethoxy)benzamide]",0.00742,> 10,
"CC(C)(C)c1noc(-c2ccc(C3CC3)c(N3CCC(F)(F)C3)c2)n1 [Example 47, 3-tert-Butyl-5-[4-cyclopropyl-3-(3,3-difluoropyrrolidin-1-yl)phenyl]-1,2,4-oxadiazole]",0.00533,> 10,
"CC(C)Oc1cc(C(=O)N2CC(F)(F)C[C@H]2C(N)=O)ccc1C1CC1 [Example 48, 1-{4-Cyclopropyl-3-[(propan-2-yl)oxy]benzoyl}-4,4-difluoro-L-prolinamide]",,> 10,0.377
"Cc1nc([C@@](C)(CC2CC2)NC(=O)c2ccc(C3CC3)c(OC(C)C)c2)no1 [Example 49, 4-Cyclopropyl-N-[(2R)-1-cyclopropyl-2-(5-methyl-1,2,4-oxadiazol-3-yl)propan-2-yl]-3-[(propan-2-yl)oxy]benzamide]",0.0421,> 10,
"Cc1nc([C@@](C)(CC2CC2)NC(=O)c2ccc(C3CC3)c(-c3ccc(F)nc3)c2)no1 [Example 50, 4-Cyclopropyl-N-[(2R)-1-cyclopropyl-2-(5-methyl-1,2,4-oxadiazol-3-yl)propan-2-yl]-3-(6-fluoropyridin-3-yl)benzamide]",0.0537,> 10,
"C[C@@](CC(N)=O)(NC(=O)c1ccc(C2CC2)c(OCC(F)(F)F)c1)C1CC1 [Example 51, N-[(2S)-4-Amino-2-cyclopropyl-4-oxobutan-2-yl]-4-cyclopropyl-3-(2,2,2-trifluoroethoxy)benzamide]",0.0808,> 10,
"C[C@](CC(N)=O)(NC(=O)c1ccc(C2CC2)c(-c2ccc(F)nc2)c1)C1CC1 [Example 52, N-[(2R)-4-Amino-2-cyclopropyl-4-oxobutan-2-yl]-4-cyclopropyl-3-(6-fluoropyridin-3-yl)benzamide]",0.00976,> 10,
"C[C@@](CC(N)=O)(NC(=O)c1ccc(C2CC2)c(-c2ccc(F)nc2)c1)C1CC1 [Example 53, N-[(2S)-4-Amino-2-cyclopropyl-4-oxobutan-2-yl]-4-cyclopropyl-3-(6-fluoropyridin-3-yl)benzamide]",0.184,> 10,
"C[C@@](CC(N)=O)(NC(=O)c1ccc(C2CC2)c(OCCF)c1)C1CC1 [Example 54, N-[(2S)-4-Amino-2-cyclopropyl-4-oxobutan-2-yl]-4-cyclopropyl-3-(2-fluoroethoxy)benzamide]",0.231,> 10,
"Cn1nccc1-c1cc(C(=O)N2CC(F)(F)C[C@H]2C(N)=O)ccc1C1CC1 [Example 55, 1-[4-Cyclopropyl-3-(1-methyl-1H-pyrazol-5-yl)benzoyl]-4,4-difluoro-L-prolinamide]",,> 10,1.91
"CNC(=O)[C@@H](NC(=O)c1ccc(C2CC2)c(-c2ccnn2C)c1)C(C)(C)C [Example 56, 4-Cyclopropyl-N-[(2S)-3,3-dimethyl-1-(methylamino)-1-oxobutan-2-yl]-3-(1-methyl-1H-pyrazol-5-yl)benzamide]",,> 10,0.14
